Test results published in patent publication US11021470B2, “2-substituted quinazoline compounds comprising a substituted heterocyclic group and methods of use thereof” (Araxes Pharma LLC, priority 2015, dated 2021).

target: T1, KRAS G12C 1-169, his-tagged protein, GDP-loaded (Homo sapiens, UniProt P01116, G12C); assay: KRAS G12C covalent binding (% modification) by mass spectrometry, ten or three minute incubation; conditions: covalent binding to KRAS G12C after a ten minute incubation period
T1 construct: KRAS G12C 1-169, his-tagged protein, GDP-loaded
Description: Test compounds were prepared as 10 mM stock solutions in DMSO (Fisher cat #BP-231-100). KRAS G12C 1-169, his-tagged protein, GDP-loaded was diluted to […] in buffer (20 mM Hepes, 150 mM NaCl, 1 mM MgCl2). Compounds were tested for activity as follows:
Compounds were diluted to 50× final test concentration in DMSO in 96-well storage plates. Compound stock solutions were vortexed before use and observed carefully for any sign of precipitation. Dilutions were as follow: • For 100 μM final compound concentration, compounds were diluted to 5000 μM (5 μl 10 mM compound stock+5 μl DMSO and mixed well by pipetting. • For 30 μM final compound concentration, compounds were diluted to 1500 μM (3 μl 10 mM compound stock+17 μl DMSO) and mixed well by pipetting. • For 10 μM final compound concentration, compounds were diluted to 500 μM (2 μl 10 mM compound stock+38 μl DMSO) and mixed well by pipetting. 49 μl of the stock protein solution was added to each well of a 96-well PCR plate (Fisher cat #1423027). 1 μl of the diluted 50× compounds were added to appropriate wells in the PCR plate using 12-channel pipettor. Reactions were mixed carefully and thoroughly by pipetting up/down with a 200 μl multi-channel pipettor. […] 5 μl of 2% formic acid (Fisher cat #A117) in DI H2O was then added to each well followed by mixing with a pipette. The plate was then resealed with aluminum seal and stored on dry ice until analyzed as described below.
The above described assays were analyzed by mass spectrometry according to one of the following two procedures:
The MS instrument is set to positive polarity, 2 GHz resolution, and low mass (1700) mode and allowed to equilibrate for 30 minutes. The instrument is then calibrated, switched to acquisition mode and the appropriate method loaded.
After another 30 minute equilibration time, a blank batch (i.e., buffer) is run to ensure equipment is operating properly. The samples are thawed at 37° C. for 10 minutes, briefly centrifuged, and transfer to the bench top. Wells A1 and H12 are spiked with 1 μL 500 μM internal standard peptide, and the plates centrifuged at 2000×g for 5 minutes. The method is then run and masses of each individual well recorded.
The masses (for which integration data is desired) for each well are pasted into the platemap and exported from the analysis. Masses for the internal standards are exported as well. The data at 50 ppm is extracted for the +19 charge state, and identity of well A1 is assigned using the internal standard spike and integrated. Peak data is exported as a TOF list and the above steps are repeated individually, for the +20, 21, 22, 23, 24, and 25 charge states.
The masses and peak intensities of KRAS G12C protein species were measured using a Dionex RSLCnano system (Thermo Scientific) connected to a Q Exactive Plus mass spectrometer (Thermo Scientific).
[…] of sample was each loaded onto a Aeris™ 3.6 μm WIDEPORE C4 200 Å, LC Column 50×2.1 mm column maintained at 40° C. at a flow rate of 600 μl min^−1 with […] (0.1% formic acid in acetonitrile). The liquid chromatography conditions were 20% solvent B for 1 min, 20% to 60% solvent B for 1.5 min, 60% to 90% solvent for 0.5 min, 90% solvent B for 0.2 min, 90% to 20% solvent B for 0.2 min, and then equilibrated for 1.6 min before the following sample injection. The flow rate was maintained at 600 μl min^−1 throughout the sample analysis.
The mass spectrometer was operated in profile mode at a resolution of 17500, 5 microscans, using 50 msec max injection time and an AGC target of 1e6, and a full mass range from 800-1850 m/z was recorded. The HCD trapping gas was optimized for maximum sensitivity for intact proteins. The ionization method was electrospray ionization, which used a spray voltage of 4 kV, sheath gas flow set to 50 au, auxiliary gas flow set to 10 au and sweep gas flow set to 1 au. […]

Q: With `C=CC(=O)N1C[C@H](C)N(c2nc(N3CC(N(C)C)C3)nc3c(F)c(-c4c(C)ccc5cn[nH]c45)c(Cl)cc23)C[C@H]1C` (atropisomer, axis not shown) [Compound 73, 1-((2R,5S)-4-((S)-6-chloro-2-(3-(dimethylamino)azetidin-1-yl)-8-fluoro-7-(6-methyl-1H-indazol-7-yl)quinazolin-4-yl)-2,5-dimethylpiperazin-1-yl)prop-2-en-1-one] as the compound, how does the Binding % read?
A: The Binding % was “++ (++ indicates binding activity from 50 to 90%)”.

Q: Which Binding % does the source give for `C=CC(=O)N1CCN(c2nc(N3CC(N(C)C)C3)nc3c(F)c(-c4c(O)cccc4F)c(Cl)cc23)C[C@H]1C` (atropisomer, axis not shown) [Compound 61, 1-((R)-4-((R)-6-chloro-2-(3-(dimethylamino)azetidin-1-yl)-8-fluoro-7-(2-fluoro-6-hydroxyphenyl)quinazolin-4-yl)-2-methylpiperazin-1-yl)prop-2-en-1-one] here?
A: Its Binding % is “++ (++ indicates binding activity from 50 to 90%)”.

same assay, conditions: covalent binding to KRAS G12C, % modification after a three minute incubation period

Q: For `[2H]C([2H])([2H])N(C1CN(c2nc(N3C[C@@H](C)N(C(=O)C=C)C[C@@H]3C)c3cc(Cl)c(-c4c(O)cccc4F)c(F)c3n2)C1)C([2H])([2H])[2H]` (atropisomer, axis not shown) [Compound 207, 1-((2R,5S)-4-(2-(3-(bis(tridueteromethyl)amino)azetidin-1-yl)-6-chloro-8-fluoro-7-((S)-2-fluoro-6-hydroxyphenyl)quinazolin-4-yl)-2,5-dimethylpiperazin-1-yl)prop-2-en-1-one], which Binding % is on record?
A: Its Binding % is “+++ (+++ indicates binding activity greater than 90%)”.

Q: Which Binding % does the source give for `C=CC(=O)N1C[C@H](C)N(c2nc(OCCCN3CC(F)(F)C3)nc3c(F)c(-c4cc(O)cc5ccccc45)c(Cl)cc23)C[C@H]1C` [Compound 247, 1-((2R,5S)-4-(6-chloro-2-(3-(3,3-difluoroazetidin-1-yl)propoxy)-8-fluoro-7-(3-hydroxynaphthalen-1-yl)quinazolin-4-yl)-2,5-dimethylpiperazin-1-yl)prop-2-en-1-one] here?
A: Its Binding % is “+ (+ indicates binding activity greater than 0% and up to 50%)”.

Q: With `C=CC(=O)N1C[C@H](C)N(c2nc(N3CC(N(C)C)C3)nc3c(F)c(-c4c[nH]c5ccccc45)c(Cl)cc23)C[C@H]1C` [Compound 285, 1-((2R,5S)-4-(6-chloro-2-(3-(dimethylamino)azetidin-1-yl)-8-fluoro-7-(1H-indol-3-yl)quinazolin-4-yl)-2,5-dimethylpiperazin-1-yl)prop-2-en-1-one] as the compound, how does the Binding % read?
A: The Binding % was “+ (+ indicates binding activity greater than 0% and up to 50%)”.

Q: How did the Binding % turn out when `C=CC(=O)N1C[C@H](C)N(c2nc(OCC(C)(C)O)nc3c(F)c(-c4c(O)cccc4F)c(Cl)cc23)C[C@H]1C` [Compound 281, 1-((2R,5S)-4-(6-chloro-8-fluoro-7-(2-fluoro-6-hydroxyphenyl)-2-(2-hydroxy-2-methylpropoxy)quinazolin-4-yl)-2,5-dimethylpiperazin-1-yl)prop-2-en-1-one] was run?
A: The Binding % was “++ (++ indicates binding activity from 50 to 90%)”.

Q: How did the Binding % turn out when `C=CC(=O)N1C[C@H](C)N(c2nc(OCCn3cncn3)nc3c(F)c(-c4c(O)cccc4F)c(Cl)cc23)C[C@H]1C` (atropisomer, axis not shown) [Compound 259, 1-((2R,5S)-4-(2-(2-(1H-1,2,4-triazol-1-yl)ethoxy)-6-chloro-8-fluoro-7-((S)-2-fluoro-6-hydroxyphenyl)quinazolin-4-yl)-2,5-dimethylpiperazin-1-yl)prop-2-en-1-one] was run?
A: Its Binding % is “+++ (+++ indicates binding activity greater than 90%)”.

Q: How did the Binding % turn out when `C=CC(=O)N1C[C@H](C)N(c2nc(N3CC(N(C)C)C3)nc3c(F)c(-c4c(O)cccc4F)c(C(F)(F)F)cc23)C[C@H]1C` (atropisomer, axis not shown) [Compound 269, 1-((2R,5S)-4-(2-(3-(dimethylamino)azetidin-1-yl)-8-fluoro-7-((S)-2-fluoro-6-hydroxyphenyl)-6-(trifluoromethyl)quinazolin-4-yl)-2,5-dimethylpiperazin-1-yl)prop-2-en-1-one] was run?
A: The Binding % was “+ (+ indicates binding activity greater than 0% and up to 50%)”.

Q: How did the Binding % turn out when `C=CC(=O)N1CCN(c2nc(N3CC(N(C)C)C3)nc3c(F)c(-c4c(O)cccc4F)c(C(F)(F)F)cc23)C[C@H]1C` (atropisomer, axis not shown) [Compound 272, 1-((R)-4-(2-(3-(dimethylamino)azetidin-1-yl)-8-fluoro-7-((R)-2-fluoro-6-hydroxyphenyl)-6-(trifluoromethyl)quinazolin-4-yl)-2-methylpiperazin-1-yl)prop-2-en-1-one] was run?
A: Its Binding % is “+++ (+++ indicates binding activity greater than 90%)”.

Q: How did the Binding % turn out when `C=CC(=O)N1C[C@H](C)N(c2nc(OCCCN3CC(F)(F)C3)nc3c(F)c(-c4c(C)ccc5[nH]ncc45)c(Cl)cc23)C[C@H]1C` [Compound 248, 1-((2R,5S)-4-(6-chloro-2-(3-(3,3-difluoroazetidin-1-yl)propoxy)-8-fluoro-7-(5-methyl-1H-indazol-4-yl)quinazolin-4-yl)-2,5-dimethylpiperazin-1-yl)prop-2-en-1-one] was run?
A: Its Binding % is “++ (++ indicates binding activity from 50 to 90%)”.

Q: For `C=CC(=O)N1CCN(c2nc(OCCc3ncccn3)nc3c(F)c(-c4c(O)cccc4F)c(Cl)cc23)C[C@H]1C` (atropisomer, axis not shown) [Compound 267, 1-((R)-4-(6-chloro-8-fluoro-7-((R)-2-fluoro-6-hydroxyphenyl)-2-(2-(pyrimidin-2-yl)ethoxy)quinazolin-4-yl)-2-methylpiperazin-1-yl)prop-2-en-1-one], which Binding % is on record?
A: Its Binding % is “+ (+ indicates binding activity greater than 0% and up to 50%)”.

Q: For `[2H]C([2H])([2H])N(C1CN(c2nc(N3C[C@@H](C)N(C(=O)C=C)C[C@@H]3C)c3cc(Cl)c(-c4c(O)cccc4F)c(F)c3n2)C1)C([2H])([2H])[2H]` [Compound 196, 1-((2R,5S)-4-(2-(3-(bis(trideuteromethyl)amino)azetidin-1-yl)-6-chloro-8-fluoro-7-(2-fluoro-6-hydroxyphenyl)quinazolin-4-yl)-2,5-dimethylpiperazin-1-yl)prop-2-en-1-one], which Binding % is on record?
A: The Binding % was “+++ (+++ indicates binding activity greater than 90%)”.

Q: Which Binding % does the source give for `C=CC(=O)N1C[C@H](C)N(c2nc(OCCn3ccnc3C3CC3)nc3c(F)c(-c4c(C)ccc5[nH]ncc45)c(Cl)cc23)C[C@H]1C` [Compound 276, 1-((2R,5S)-4-(6-chloro-2-(2-(2-cyclopropyl-1H-imidazol-1-yl)ethoxy)-8-fluoro-7-(5-methyl-1H-indazol-4-yl)quinazolin-4-yl)-2,5-dimethylpiperazin-1-yl)prop-2-en-1-one] here?
A: Its Binding % is “++ (++ indicates binding activity from 50 to 90%)”.

Q: For “1-((2R,5S)-4-(6-chloro-2-(2-(diethylamino)ethoxy)-8-fluoro-7-((S)-6-methyl-1H-indazol-7-yl)quinazolin-4-yl)-2,5-dimethylpiperazin-1-yl)prop-2-en-1-one [Compound 157]”, which Binding % is on record?
A: Its Binding % is “+ (+ indicates binding activity greater than 0% and up to 50%)”.

Q: For `[2H]C([2H])([2H])N(C1CN(c2nc(N3C[C@@H](C)N(C(=O)C=C)C[C@@H]3C)c3cc(Cl)c(-c4c(C)ccc5[nH]ncc45)c(F)c3n2)C1)C([2H])([2H])[2H]` (atropisomer, axis not shown) [Compound 226, 1-((2R,5S)-4-(6-chloro-2-(3-(bis(tridueteromethyl)amino)azetidin-1-yl)-8-fluoro-7-((R)-5-methyl-1H-indazol-4-yl)quinazolin-4-yl)-2,5-dimethylpiperazin-1-yl)prop-2-en-1-one], which Binding % is on record?
A: The Binding % was “+++ (+++ indicates binding activity greater than 90%)”.
